Measured values reported in PMC4601019, “Bacillus cereus eﬄux protein BC3310 – a multidrug transporter of the unknown major facilitator family, UMF-2” (Frontiers in Microbiology, 2015).

Molecular target: T1, BC3310 (Bacillus cereus, UniProt Q81B77)
T1 construct: gene BC_3310; full-length in pTTQ18 with C-terminal RGSHis6 tag, expressed in E. coli DH5alpha deltaacrAB; 12 predicted TM helices; migrates at ~30 kDa
Assay: whole-cell ethidium accumulation assay (fluorescence), E. coli expressing BC3310 vs empty vector
Assay type: cell-based
Settings: 25 uM ethidium bromide, PBS with 0.4% glucose, pH 7-7.4; CCCP-sensitive efflux

T1 sequence (Q81B77 entry or part of it): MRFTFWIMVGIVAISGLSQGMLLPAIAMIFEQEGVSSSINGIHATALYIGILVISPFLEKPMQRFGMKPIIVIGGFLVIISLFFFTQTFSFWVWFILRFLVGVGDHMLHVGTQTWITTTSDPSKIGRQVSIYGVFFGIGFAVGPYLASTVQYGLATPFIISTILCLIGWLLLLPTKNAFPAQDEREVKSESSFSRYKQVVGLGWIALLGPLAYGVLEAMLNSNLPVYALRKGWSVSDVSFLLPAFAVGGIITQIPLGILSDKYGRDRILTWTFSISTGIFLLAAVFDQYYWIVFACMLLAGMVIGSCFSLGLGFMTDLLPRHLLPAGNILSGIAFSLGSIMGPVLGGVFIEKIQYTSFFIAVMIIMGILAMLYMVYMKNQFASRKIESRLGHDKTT

In the case of `CC[n+]1c(-c2ccccc2)c2cc(N)ccc2c2ccc(N)cc21` [ethidium bromide], the “whole-cell ethidium accumulation assay (fluorescence), E. coli expressing BC3310” value is reported as “showed less fluorescence compared to the empty vector control (pTTQ18), thereby implying that BC3310 exports”.
